Earlier results on one substance are cited in article PMC11765717, “In Vitro Insights into Bacteriocin-Mediated Modulation of Chicken Cecal Microbiota” (International Journal of Molecular Sciences, 2025).

Data set [1] has as its system L. ivanovii. On the set-up: method as in PMID 35170996. The note with it: sensitive strain L. ivanovii; ref [64]; cited from earlier work.
For data set [2] the following is noted: ref [67],[76]; cited from earlier work.

Take “Pediocin PA-1 (M31L) (KYYGNGVTCGKHSCSVDWGKATTCIINNGALAWATGGHQGNHKC; UniProt P29430 19-62, looked up, variant M31L)”: the “MIC (µg/mL)” value in data set [1] is 0.09 µg/mL. The “Antibacterial activity in conditions mimicking the small intestine, in words” value in data set [2] is reported as “losing its antibacterial activity completely”.
